According to US11667675B2, “MASP inhibitory compounds and uses thereof” (Bayer Aktiengesellschaft, priority 2019, dated 2023):
Structures can show the parent of a compound that is named as a salt. Numbered stars: 1 amine (or outer) side, 2 acyl side, 3 side chain; on linkers, the order of the positions; unused ones are H or OH. Bridge positions count the residues as written; N and C are the ends. Square brackets hold non-standard residues; d marks the D form. Peptide text beside a SMILES is read from it. * marks the point of attachment. X1 = O=C(C1[C@H]2CCCC[C@H]2C[C@H]1C(=O)[*:2])[C@@H]1CCCN1[*:1]; Oic = O=C(O)[C@@H]1C[C@@H]2CCCC[C@@H]2N1; Pen = CC(C)(S)[C@H](N)C(=O)O; X2 = N[C@@H](CN*)C(=O)O; Sar = CNCC(=O)O

How the values were obtained:
[1] = system: Human C3-[…]; assay: C3 deposition assay, human serum on mannan-coated plates; format: biochemical; details: average IC50, read-out: Human C3-DEPOSITION SERUM IC50
Procedure, shortened: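 Plates coated overnight at 4° C with mannan (10 μg/mL, pH 9.6), blocked with 1% BSA; serum C3 deposition detected colorimetrically at 450 nm, washes in TBS/0.05% Tween 20/5 mM CaCl2.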

[2] = target: T1, rat MASP2 (Rattus norvegicus, UniProt Q9JJS8); assay: Biochemical rat MASP2 assay (FRET substrate); details: average IC50; recombinant rat MASP2, FRET substrate
T1 construct: Ig-kappa secretion signal (N, cleaved yes); made in house; host or cells: HEK293 (ATCC No. CRL-1573)
Text: 4. Biochemical Rat MASP-1 and MASP-2 Assay
4.1 Recombinant Expression and Protein Production of Recombinant Human and Rat MASP1 and MASP2 Active Proteases.
The MASP1 or MASP2 expression vectors were transfected into the HEK293 (ATCC No. CRL-1573) cell line using Lipofectamine LTX® Reagent (Thermo-Fischer), as described by the manufacturer. The mature form of the recombinant rat MASP1 and MASP2 proteases were secreted into the culture medium. The MASP1 and MASP2 proteins were purified from the conditioned media by affinity chromatography on Ni-NTA Superflow resin (Qiagen) as described by the manufacturer.
4.3 Biochemical Rat MASP2 Assay.
Recombinant rat MASP2 enzyme produced in the HEK 293 cells was diluted in the reaction buffer (50 mM HEPES pH 8,0; 100 mM NaCl; 0.01% CHAPS; 0.5 mM Gluthathione) to the concentration of 20 nM and 25 μl was transferred into each single well of 384-well white microtiter plate (Greiner Bio One 781075). 1 μl of the inhibitor compound solution (dissolved in DMSO, at the corresponding concentration) or pure DMSO as a control was added to the same wells. The enzymatic reaction was initiated by addition of 25 μl of 30 μM solution of the FRET substrate Abz-IEGRTSED-(Lys)Dnp-NH2 (SEQ ID NO: 9); (ABZ—2-aminobenzoyl; DNP_2,4-dinitrophenyl; custom synthesis by Jerini Peptide Technologies, Berlin) in the reaction buffer. The microtiter plate was incubated for 60-120 min at the temperature of 32 C. The increase of fluorescence intensity was measured in appropriate fluorescence plate reader (e.g. TECAN Ultra) using excitation wavelength of 320 nm and emission wavelength of 420 nm. IC50 values were calculated from percentage of inhibition of rat […] activity as a function of test compound concentration.

[3] = system: rat C3-[…]; assay: C3 deposition assay, rat serum on mannan-coated plates; format: biochemical; details: average IC50
Procedure: 3. C3 Deposition Assay (Human, Rat, Mouse, Dog, Mini-Pig)
The C3 deposition assay was conducted essentially as described (reference). Multi well plates (Greiner-Nunc 384 Maxi Sorp #464718) were coated over night with Mannan from Saccharomyces cerevisiae (Sigma M7504, 10 μg/mL in 0.05 M carbonate-bicarbonate buffer, pH 9.6) at 4° C. Wells were washed three times with TBS and subsequently incubated for 2 hours with 50 μL of 1% bovine serum albumin (BSA) in Tris-buffered saline (TBS) at 37° C. in order to block non-specific binding. After this step and each of the following incubation steps wells were washed three times with C3 wash buffer (TBS; 0.05% Tween 20; 5 mM CaCl2). […] When appropriately developed the color reaction was stopped by addition of 25 μL of stop solution (Sigma S5814) and quantified on a photometer by measuring absorption at a wavelength of 450 nm. Antibodies were diluted in C3 wash buffer supplemented with 0.5% BSA.

T1 sequence (Q9JJS8 296-443): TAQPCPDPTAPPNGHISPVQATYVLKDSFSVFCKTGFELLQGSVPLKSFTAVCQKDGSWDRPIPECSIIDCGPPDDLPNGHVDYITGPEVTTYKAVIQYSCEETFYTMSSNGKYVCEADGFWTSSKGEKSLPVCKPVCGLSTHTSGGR
T1 sequence (Q9JJS8 444-685): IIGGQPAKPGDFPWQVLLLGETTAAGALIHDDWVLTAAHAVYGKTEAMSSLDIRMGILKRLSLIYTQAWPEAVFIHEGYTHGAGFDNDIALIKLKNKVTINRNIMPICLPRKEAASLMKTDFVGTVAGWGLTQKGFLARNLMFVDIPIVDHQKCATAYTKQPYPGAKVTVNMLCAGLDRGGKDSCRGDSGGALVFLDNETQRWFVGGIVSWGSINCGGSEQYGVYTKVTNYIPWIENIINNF

With `CC[C@H](C)[C@H](NC(=O)CNC)C(=O)N[C@H]1CSSC(C)(C)[C@@H](C(=O)N[C@H](C(=O)N2CCC[C@H]2C(N)=O)[C@@H](C)CC)NC(=O)[C@H]([C@@H](C)CC)NC(=O)[C@@H]2C[C@@H]3CCCC[C@@H]3C2C(=O)[C@@H]2CCCN2C(=O)[C@H](CC(C)C)NC(=O)[C@H](CO)NC(=O)[C@H](CCCNC(=N)N)NC(=O)[C@H](CO)NC1=O` (stereo partly shown) [Example 67, ((N-Me)G)-IC+SRSLP-(Oic)-I-(Pen)+IP-NH2 (HCl Salt)] (H-[Sar]ICSRSL[X1]I[Pen]IP-NH2; disulfide 3-10) the IC50 [1] was 121 nM and the IC50 [2] was 36 nM.

Compound `CC[C@H](C)[C@H](NC(=O)CNC)C(=O)N[C@H]1CSSC(C)(C)[C@@H](C(=O)N[C@H](C(=O)N2CCC[C@H]2C(=O)NC[C@H](N)C(=O)O)[C@@H](C)CC)NC(=O)[C@H]([C@@H](C)CC)NC(=O)[C@@H]2C[C@@H]3CCCC[C@@H]3N2C(=O)[C@@H]2CCCN2C(=O)[C@H](CC(C)C)NC(=O)[C@H](CO)NC(=O)[C@H](CCCNC(=N)N)NC(=O)[C@H](CO)NC1=O` [Example 467] (H-[Sar]ICSRSLP[Oic]I[Pen]IP-X2; disulfide 3-11) has an IC50 [1] of 41.5 nM and an IC50 [2] of 70 nM.

In the case of `CC[C@H](C)[C@H](NC(=O)[C@H](C)NC)C(=O)N[C@H]1CSSC(C)(C)[C@@H](C(=O)N[C@H](C(=O)N2CCC[C@H]2C(N)=O)[C@@H](C)CC)NC(=O)[C@H]([C@@H](C)CC)NC(=O)[C@@H]2C[C@@]3(CN2C(=O)[C@@H]2CCCN2C(=O)[C@@H](CC(C)(C)C)NC(=O)[C@H](CO)NC(=O)[C@H](CCCNC(=N)N)NC(=O)[C@H](CO)NC1=O)CC3(F)F` (single isomer, unassigned; enantiomer 1) [Example 443], the IC50 [1] is reported as 25.2 nM and the IC50 [2] is reported as 4.7 nM.

Compound `[2H][C@@H]1[C@H]([2H])CN2C(=O)[C@H](CC(C)C)NC(=O)[C@H](CO)NC(=O)[C@H](CCCNC(=N)N)NC(=O)[C@H](CO)NC(=O)[C@@H](NC(=O)[C@@H](NC(=O)[C@H](C)N)[C@@H](C)CC)CSSC(C)(C)[C@@H](C(=O)N[C@H](C(=O)N3CCC[C@H]3C(=O)N[C@@H](CC(=O)O)C(=O)O)[C@@H](C)CC)NC(=O)[C@H]([C@@H](C)CC)NC(=O)[C@@H]3C[C@@H]4CCCC[C@@H]4N3C(=O)[C@H]12` [Example 142, N-[(1R,2S,6S,9S,12S,15S,18R,23R,26S,28aS,35aS)-18-[(L-alanyl-L-isoleucyl)amino]-26-[(2S)-butan-2-yl]-12-(3-carbamimidamidopropyl)-9,15-bis(hydroxymethyl)-22,22-dimethyl-6-(2-methylpropyl)-5,8,11,14,17,25,28,35-octaoxo(1,2-^2H2)dotriacontahydro-1H,5H,22H-pyrrolo[2′,1′:13,14][1,2,5,8,11,14,17,20,23,26]dithiaoctaazacyclononacosino[11,10-a]indole-23-carbonyl]-L-isoleucyl-L-prolyl-L-aspartic Acid] has an IC50 [1] of 12.4 nM, an IC50 [2] of 17.1 nM and an IC50 [3] of 472 nM.

Work on `CC[C@H](C)[C@H](NC(=O)CNC)C(=O)N[C@H]1CSSC(C)(C)[C@@H](C(=O)N[C@H](C(=O)N2CCC[C@H]2C(=O)N[C@@H](CC(=O)O)C(=O)N[C@@H](CC(=O)O)C(=O)O)[C@@H](C)CC)NC(=O)[C@H]([C@@H](C)CC)NC(=O)[C@@H]2C[C@@H]3CCCC[C@@H]3N2C(=O)[C@@H]2CCCN2C(=O)[C@H](CC(C)C)NC(=O)[C@H](CO)NC(=O)[C@H](CCCNC(=N)N)NC(=O)[C@H](CO)NC1=O` [Example 466, ((N-Me)G)-IC+SRSLP-(Oic)-I-(Pen)+IPDD-OH] (H-[Sar]ICSRSLP[Oic]I[Pen]IPDD-OH; disulfide 3-11) yielded an IC50 [1] of 71.6 nM and an IC50 [2] of 72 nM.

In the case of `CC[C@H](C)[C@H](NC(=O)[C@H](C)N)C(=O)N[C@H]1CSSC[C@@H](C(=O)N[C@H](C(=O)N2CCC[C@H]2C(=O)N[C@@H](CC(=O)O)C(N)=O)[C@@H](C)CC)N(C)C(=O)[C@H]([C@@H](C)CC)NC(=O)[C@@H]2C[C@@H]3CCCC[C@@H]3N2C(=O)[C@@H]2CCCN2C(=O)[C@H](CC(C)C)NC(=O)[C@H](CO)NC(=O)[C@H](CCCNC(=N)N)NC(=O)[C@H](CO)NC1=O` [Example 185, AIC+SRSLP-(Oic)-I-((N-Me)C)+IPD-NH2], the IC50 [1] is reported as 6.74 nM, the IC50 [2] is reported as 10.9 nM and the IC50 [3] is reported as 236 nM.

`CC[C@H](C)[C@H](NC(=O)CNC)C(=O)N[C@H]1CSSC(C)(C)[C@@H](C(=O)N[C@H](C(=O)N2CCC[C@H]2C(N)=O)[C@@H](C)CC)NC(=O)[C@H]([C@@H](C)CC)NC(=O)[C@@H]2C[C@@H]3CCCC[C@@H]3N2C(=O)[C@@H]2CCCN2C(=O)[C@H](CC(C)C)NC(=O)[C@H](CO)NC(=O)[C@H](CCCNC(=N)N)NC(=O)[C@H](CO)NC1=O` [Example 109, ((N-Me)G)-IC+SRSLP-(Oic)-I-(Pen)+IP-NH2] (H-[Sar]ICSRSLP[Oic]I[Pen]IP-NH2; disulfide 3-11) was tested, and the IC50 [1] was 135 nM and the IC50 [2] was 42 nM.
